Experiments:
human TLR8 = target: T1, human TLR8 (Homo sapiens, UniProt Q9NR97); assay: TLR8 inhibition reporter assay (HEK-Blue SEAP); format: cell-based; details: HEK-Blue cells overexpressing human TLR8, R848 15.9 μM, 22 hour incubation
T1 construct: host or cells: HEK-Blue cells
T1 sequence (Q9NR97 27-1041): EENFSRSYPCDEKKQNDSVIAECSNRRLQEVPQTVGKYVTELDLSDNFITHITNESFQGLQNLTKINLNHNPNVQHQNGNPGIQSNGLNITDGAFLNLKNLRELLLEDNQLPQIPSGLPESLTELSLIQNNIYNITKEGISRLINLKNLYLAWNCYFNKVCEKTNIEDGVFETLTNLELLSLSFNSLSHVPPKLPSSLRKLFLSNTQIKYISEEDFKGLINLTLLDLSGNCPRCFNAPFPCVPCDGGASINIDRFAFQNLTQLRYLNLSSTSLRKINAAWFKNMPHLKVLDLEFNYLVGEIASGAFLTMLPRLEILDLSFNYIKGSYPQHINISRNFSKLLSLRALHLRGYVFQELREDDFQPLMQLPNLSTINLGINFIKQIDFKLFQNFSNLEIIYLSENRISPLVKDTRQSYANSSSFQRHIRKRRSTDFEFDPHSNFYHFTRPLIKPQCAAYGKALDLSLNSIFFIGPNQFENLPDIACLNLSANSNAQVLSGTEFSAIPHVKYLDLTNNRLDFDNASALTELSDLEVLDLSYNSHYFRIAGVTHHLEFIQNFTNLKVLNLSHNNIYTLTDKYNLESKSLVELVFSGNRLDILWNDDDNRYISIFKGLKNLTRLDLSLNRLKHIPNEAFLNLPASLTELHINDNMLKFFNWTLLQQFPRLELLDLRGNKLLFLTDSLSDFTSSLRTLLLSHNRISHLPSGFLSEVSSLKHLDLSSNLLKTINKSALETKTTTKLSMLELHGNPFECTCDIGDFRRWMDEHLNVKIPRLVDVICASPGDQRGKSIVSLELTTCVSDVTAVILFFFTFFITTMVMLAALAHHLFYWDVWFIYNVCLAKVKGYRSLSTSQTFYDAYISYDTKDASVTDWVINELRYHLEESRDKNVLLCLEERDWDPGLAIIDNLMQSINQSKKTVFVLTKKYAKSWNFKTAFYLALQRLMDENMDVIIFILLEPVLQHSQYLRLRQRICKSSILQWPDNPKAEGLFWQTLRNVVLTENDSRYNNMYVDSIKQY
Method in brief: (§1)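 Compound treatment: 30 min, RT, 0.05 nM–50 μM final. Agonist: TLR7 gardiquimod 7.5 μM; TLR8 R848 15.9 μM; TLR9 ODN2006 5 nM. Incubation 22 h, 37 °C, 5% CO2. Readout SEAP, HEK-Blue Detection.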

human TLR9 = target: T2, human TLR9 (Homo sapiens, UniProt Q9NR96); assay: TLR9 inhibition reporter assay (HEK-Blue SEAP); format: cell-based; details: HEK-Blue cells overexpressing human TLR9, ODN2006 5 nM, 22 hour incubation
T2 construct: host or cells: HEK-Blue cells
T2 sequence (Q9NR96 26-1032): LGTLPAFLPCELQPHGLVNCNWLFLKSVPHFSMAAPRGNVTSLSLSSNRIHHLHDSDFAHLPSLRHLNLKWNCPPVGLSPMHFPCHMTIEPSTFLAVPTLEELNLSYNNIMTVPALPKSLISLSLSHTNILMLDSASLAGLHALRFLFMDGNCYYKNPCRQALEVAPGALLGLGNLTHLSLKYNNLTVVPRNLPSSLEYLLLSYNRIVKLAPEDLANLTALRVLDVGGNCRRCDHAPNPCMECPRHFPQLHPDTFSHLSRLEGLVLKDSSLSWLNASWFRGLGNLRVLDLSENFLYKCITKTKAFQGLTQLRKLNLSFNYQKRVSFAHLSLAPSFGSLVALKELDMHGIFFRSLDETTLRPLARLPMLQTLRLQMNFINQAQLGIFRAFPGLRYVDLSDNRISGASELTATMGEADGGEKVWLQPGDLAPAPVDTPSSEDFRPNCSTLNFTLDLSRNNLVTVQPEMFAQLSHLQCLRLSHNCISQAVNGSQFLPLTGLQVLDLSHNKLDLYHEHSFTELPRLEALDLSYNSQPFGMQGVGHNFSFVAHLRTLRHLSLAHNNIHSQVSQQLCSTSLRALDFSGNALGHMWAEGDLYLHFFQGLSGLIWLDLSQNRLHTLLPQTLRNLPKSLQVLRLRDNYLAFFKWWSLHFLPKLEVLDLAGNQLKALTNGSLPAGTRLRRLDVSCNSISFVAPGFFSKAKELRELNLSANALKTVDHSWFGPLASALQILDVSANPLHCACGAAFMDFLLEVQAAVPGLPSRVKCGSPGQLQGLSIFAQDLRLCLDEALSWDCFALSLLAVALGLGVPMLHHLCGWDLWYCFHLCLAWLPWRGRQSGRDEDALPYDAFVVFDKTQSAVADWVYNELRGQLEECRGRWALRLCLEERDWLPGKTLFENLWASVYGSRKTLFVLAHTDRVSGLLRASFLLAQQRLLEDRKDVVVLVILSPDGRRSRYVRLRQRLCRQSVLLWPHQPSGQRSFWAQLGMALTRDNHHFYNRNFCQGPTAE
Method in brief: as §1

SMILES | IC50 (human TLR8) [nM] | IC50 (human TLR9) [nM]
COc1cc(-c2cc3[nH]c(=O)n(C4CCN(C5CCC5)CC4)c3cc2C(C)C)cn2ncnc12 [Example 156, 1-(1-cyclobutylpiperidin-4-yl)-6-isopropyl-5-(8-methoxy-[1,2,4]triazolo[1,5-a]pyridin-6-yl)-1,3-dihydro-2H-benzo[d]imidazol-2-one] | 4.77 | 23800
COc1cc(-c2cc3[nH]c(=O)n(C4CCN(C5COC5)CC4)c3cc2C(C)C)cn2ncnc12 [Example 157, 6-isopropyl-5-(8-methoxy-[1,2,4]triazolo[1,5-a]pyridin-6-yl)-1-(1-(oxetan-3-yl)piperidin-4-yl)-1,3-dihydro-2H-benzo[d]imidazol-2-one] | 5.42 | > 50000
COc1cc(-c2cc3[nH]c(=O)n(C4CCN(C5CCOCC5)CC4)c3cc2C(C)C)cn2ncnc12 [Example 158, 6-isopropyl-5-(8-methoxy-[1,2,4]triazolo[1,5-a]pyridin-6-yl)-1-(1-(tetrahydro-2H-pyran-4-yl)piperidin-4-yl)-1,3-dihydro-2H-benzo[d]imidazol-2-one] | 16.2 | 21400
COc1cc(-c2cc3[nH]c(=O)n(C4CCN(CC5CCOCC5)CC4)c3cc2C(C)C)cn2ncnc12 [Example 159, 6-isopropyl-5-(8-methoxy-[1,2,4]triazolo[1,5-a]pyridin-6-yl)-1-(1-((tetrahydro-2H-pyran-4-yl)methyl)piperidin-4-yl)-1,3-dihydro-2H-benzo[d]imidazol-2-one] | 4.52 | 7250
COc1cc(-c2cc3[nH]c(=O)n(C4CCN(CC5CCOC5)CC4)c3cc2C(C)C)cn2ncnc12 (stereo not shown) [Example 160, 6-isopropyl-5-(8-methoxy-[1,2,4]triazolo[1,5-a]pyridin-6-yl)-1-(1-((tetrahydrofuran-3-yl)methyl)piperidin-4-yl)-1,3-dihydro-2H-benzo[d]imidazol-2-one] | 5.62 | 14300
COc1cc(-c2cc3[nH]c(=O)n(C4CCN(CC5CC5)CC4)c3cc2C(C)C)cn2ncnc12 [Example 161, 1-(1-(cyclopropylmethyl)piperidin-4-yl)-6-isopropyl-5-(8-methoxy-[1,2,4]triazolo[1,5-a]pyridin-6-yl)-1,3-dihydro-2H-benzo[d]imidazol-2-one] | 6.04 | 11300
COc1cc(-c2cc3[nH]c(=O)n(C4CCN(C5CCOC5)CC4)c3cc2C(C)C)cn2ncnc12 (stereo not shown) [Example 162, 6-isopropyl-5-(8-methoxy-[1,2,4]triazolo[1,5-a]pyridin-6-yl)-1-(1-(tetrahydrofuran-3-yl)piperidin-4-yl)-1,3-dihydro-2H-benzo[d]imidazol-2-one] | 6.56 | > 50000
CCc1cc2c(cc1-c1cc(OC)c3ncnn3c1)[nH]c(=O)n2[C@H]1CC[C@@H](NC2CCOCC2)CC1 [Example 166, 6-ethyl-5-(8-methoxy-[1,2,4]triazolo[1,5-a]pyridin-6-yl)-1-((1s,4s)-4-((tetrahydro-2H-pyran-4-yl)amino)cyclohexyl)-1,3-dihydro-2H-benzo[d]imidazol-2-one] | 0.54 | 14900

Other lines, results leading:

IC50 (human TLR8) [nM] | IC50 (human TLR9) [nM] | SMILES
21.7 | 17700 | CCC(CC)CN1CCC[C@@H](n2c(=O)[nH]c3cc(-c4cn5ncnc5c(C)c4C)c(C(C)C)cc32)C1 [Example 151, (R)-5-(7,8-dimethyl-[1,2,4]triazolo[1,5-a]pyridin-6-yl)-1-(1-(2-ethylbutyl)piperidin-3-yl)-6-isopropyl-1,3-dihydro-2H-benzo[d]imidazol-2-one]
2.27 | 13100 | COc1cc(-c2cc3[nH]c(=O)n([C@@H]4CCCN(CC(C)(C)C)C4)c3cc2C(C)C)cn2ncnc12 [Example 153, (R)-6-isopropyl-5-(8-methoxy-[1,2,4]triazolo[1,5-a]pyridin-6-yl)-1-(1-neopentylpiperidin-3-yl)-1,3-dihydro-2H-benzo[d]imidazol-2-one]
1.52 | 23500 | COc1cc(-c2cc3[nH]c(=O)n(C4CCN(C)CC4)c3cc2C(C)C)cn2ncnc12 [Example 154, 6-isopropyl-5-(8-methoxy-[1,2,4]triazolo[1,5-a]pyridin-6-yl)-1-(1-methylpiperidin-4-yl)-1,3-dihydro-2H-benzo[d]imidazol-2-one]
9.56 | 11900 | CCCN1CCC(n2c(=O)[nH]c3cc(-c4cc(OC)c5ncnn5c4)c(C(C)C)cc32)CC1 [Example 155, 6-isopropyl-5-(8-methoxy-[1,2,4]triazolo[1,5-a]pyridin-6-yl)-1-(1-propylpiperidin-4-yl)-1,3-dihydro-2H-benzo[d]imidazol-2-one]
7.58 | 15300 | COc1cc(-c2cc3[nH]c(=O)n(C4CCN(C(C)C)CC4)c3cc2C(C)C)cn2ncnc12 [Example 163, 6-isopropyl-1-(1-isopropylpiperidin-4-yl)-5-(8-methoxy-[1,2,4]triazolo[1,5-a]pyridin-6-yl)-1,3-dihydro-2H-benzo[d]imidazol-2-one]
9.67 | 17200 | COc1cc(-c2cc3[nH]c(=O)n(C4CCN(CC(C)C)CC4)c3cc2C(C)C)cn2ncnc12 [Example 164, 1-(1-isobutylpiperidin-4-yl)-6-isopropyl-5-(8-methoxy-[1,2,4]triazolo[1,5-a]pyridin-6-yl)-1,3-dihydro-2H-benzo[d]imidazol-2-one]
7.03 | 8720 | CCC(CC)CN1CCC(n2c(=O)[nH]c3cc(-c4cc(OC)c5ncnn5c4)c(C(C)C)cc32)CC1 [Example 165, 1-(1-(2-ethylbutyl)piperidin-4-yl)-6-isopropyl-5-(8-methoxy-[1,2,4]triazolo[1,5-a]pyridin-6-yl)-1,3-dihydro-2H-benzo[d]imidazol-2-one]
0.82 | 16600 | CCc1cc2c(cc1-c1cc(OC)c3ncnn3c1)[nH]c(=O)n2[C@H]1CC[C@@H](NC(C)C)CC1 [Example 167, 6-ethyl-1-((1s,4s)-4-(isopropylamino)cyclohexyl)-5-(8-methoxy-[1,2,4]triazolo[1,5-a]pyridin-6-yl)-1,3-dihydro-2H-benzo[d]imidazol-2-one]
1.53 | 15200 | CCCN(CCC)[C@H]1CC[C@@H](n2c(=O)[nH]c3cc(-c4cc(OC)c5ncnn5c4)c(CC)cc32)CC1 [Example 168, 1-((1s,4s)-4-(dipropylamino)cyclohexyl)-6-ethyl-5-(8-methoxy-[1,2,4]triazolo[1,5-a]pyridin-6-yl)-1,3-dihydro-2H-benzo[d]imidazol-2-one]

From patent US12187723B2 (BRISTOL-MYERS SQUIBB COMPANY, priority 2019, dated 2025)
